Measurements taken from PubChem BioAssay AID2384 (Southern Research Specialized Biocontainment Screening …, 2010).

System: S. typhi GFP reporter counter-screen, fluorescence, 4 h
Assay: S. typhi counter-screen signal inhibition – fluorescence, 4 h, counter-screen for PhoP regulon inhibitor project, dose response (AID 2384)

Point of comparison: `CCNC(=O)Oc1ccc[nH]c1=O`, IC50 53.8 µM. Against it:
- Oc1ccc(CN2CCN(Cc3ccccc3)CC2)c2cccnc12 — 2.1-fold lower, 25.7 µM
- O=C(N/N=C/c1ccc([N+](=O)[O-])s1)C(O)c1ccccc1 (centres undefined) — 1.7-fold lower, 32.1 µM
- Cc1ccc(OCC(O)Cn2c(=N)n(CCN3CCCCC3)c3ccccc32)cc1 (centres undefined) — 4-fold lower, 13.4 µM
- COc1ccc(C(=O)N/N=C/c2sc3ccccc3c2O)cc1 — within 1.5-fold, 62.6 µM
- O=C(N/N=C/c1cccs1)c1ccc2nc[nH]c2c1 — 2.3-fold higher, 125 µM
- C/C(=N\NC(=O)c1ccc(CN2CCc3ccccc3C2)cc1)c1ccccc1O — within 1.5-fold, 51.8 µM
- CC(C)(C)c1ccc(OCCCNC2CCCC2)cc1 — within 1.5-fold, 77.7 µM
- CC1CCC(C(C)C)C(OC(=O)Cn2c(-c3ccc(Cl)cc3)[n+](C)c3ccccc32)C1 (centres undefined) — within 1.5-fold, 38.3 µM
- Nc1ncn(C2O[C@H](CO)[C@@H](O)[C@H]2O)c(=O)n1 (some centres undefined) — 1.5-fold lower, 35.2 µM
- O=C(Nc1ccc(-c2nc3ccccc3[nH]2)cc1)c1ccco1 — 1.7-fold higher, 94 µM
- Cc1cc(N2CCC(C)CC2)nc(NCc2ccccc2)n1 — within 1.5-fold, 51.8 µM
- O=C(Cc1ccc([N+](=O)[O-])cc1)N/N=C/c1ccc([N+](=O)[O-])o1 — 2.6-fold lower, 20.9 µM
- CCCN(CCC)CCNC(=O)C1CCN(Cc2nc(-c3ccc(Cl)cc3)oc2C)CC1 — within 1.5-fold, 57.1 µM
- CCC(C)NC(=O)c1cn(CC)c2cc(N3CCN(C)CC3)c(F)cc2c1=O (centres undefined) — within 1.5-fold, 38.2 µM
- C=CCc1cc(Cl)ccc1OCCCNCCO — 1.8-fold higher, 94.2 µM
- CN(C)c1ccc(O)c2c1CC1CC3[C@@H](N(C)C)C(=O)C(C(N)=O)=C(O)[C@]3(O)C(=O)C1=C2O (some centres undefined) — 14-fold lower, 3.9 µM
- NC1=NC2(CCCCC2)N=C(Nc2ccc(Br)cc2)N1 — within 1.5-fold, 35.9 µM
- CCCOc1ccc(C(=O)NNC(=S)NC(=O)c2ccco2)cc1 — within 1.5-fold, 36.8 µM
- CCC(C)N1CCC2(CC1)N=c1c(c3c4c5c(C)c(O)c3c(O)c1=NC(=O)C(C)=CC=C[C@H](C)[C@H](O)[C@@H](C)[C@@H](O)[C@@H](C)[C@H](OC(C)=O)[C@H](C)[C@@H](OC)C=CO[C@@](C)(O5)C4=O)N2 (some centres undefined) — 10-fold lower, 5.31 µM
- Cc1ccc(NC(=O)CSC(N)=O)cc1Cl — 1.5-fold higher, 82.1 µM
- O=C(N/N=C/c1ccc([N+](=O)[O-])o1)C(O)c1ccccc1 (centres undefined) — within 1.5-fold, 37.4 µM
- N=c1c2c(n(Cc3ccc(Cl)cc3Cl)c3c1CCC3)CCCC2 — within 1.5-fold, 37.5 µM
- COc1ccc2sc(N(CCCN(C)C)C(=O)c3ccc(S(=O)(=O)N4CCc5ccccc5C4)cc3)nc2c1 — 2.3-fold higher, 122 µM
- COc1cc([N+](=O)[O-])cc(/C=N/NC(=O)CSc2ccccn2)c1O — 1.7-fold higher, 93.2 µM
- CCCN1CCC(NCc2cn(C)nc2-c2ccc(Oc3ccccc3)cc2)CC1 — 1.6-fold higher, 85.4 µM
- NC(N)=N/N=C/c1ccc(OCc2ccc(Cl)cc2Cl)cc1 — 5.2-fold lower, 10.3 µM
- Cc1c(N=Cc2cc(Br)cc(Br)c2O)cccc1C(=O)O — within 1.5-fold, 39.5 µM
- Oc1ccccc1Nc1nc(NCc2ccco2)c2ccccc2n1 — within 1.5-fold, 50.9 µM
- OC1CCCN(Cc2ccc3ccc4cccc5ccc2c3c45)C1 (centres undefined) — within 1.5-fold, 59.9 µM
- CN1CCC(OC(=O)c2cccc(Br)c2)CC1 — within 1.5-fold, 55.9 µM
- CC1(C)CC(N2CCN(C(c3ccccc3)c3ccccc3)CC2)=CC(=[N+]2CCCCC2)C1 — within 1.5-fold, 63.2 µM
- C#CCOCCOCCOCCNc1nc(N2CCN(C(=O)C(Cc3cc4ccccc4[nH]3)n3cc(C(N)C(C)CC)nn3)CC2)nc(N2CCN(C(=O)C(Cc3cc4ccccc4[nH]3)n3cc(C(N)C(C)CC)nn3)CC2)n1 (centres undefined) — 2.5-fold higher, 134 µM
- Cc1cc(C)n(-c2nc(NCCN(C)C)c3c4c(sc3n2)CCCC4)n1 — within 1.5-fold, 37.9 µM
- CN(C)C1C(=O)C(C(N)=O)=C(O)C2(O)C(=O)C3=C(O)c4c(O)cccc4C(C)(O)C3C(O)C12 (centres undefined) — 65-fold lower, 0.83 µM
- O=C(CCN1CCOCC1)N/N=C/c1cc(Br)cc(Br)c1O — 2-fold lower, 27.3 µM
- CCCCCC(=O)NC(=S)NNC(=O)CC — within 1.5-fold, 68.8 µM
- Cc1ccc(C(OCC(O)CNCc2ccc(F)cc2)c2ccccc2)cc1 (centres undefined) — within 1.5-fold, 37 µM
- CO/N=C(/C(=O)N[C@@H]1C(=O)N2C(C(=O)O)=CCS[C@H]12)c1cnc(N)s1 — 2-fold lower, 27 µM
- COc1cc(CNCCc2ccccc2)cc(Cl)c1OCc1ccccc1 — within 1.5-fold, 37.6 µM
- COC(=O)C1=C(C)N(Cc2ccccc2)C(=NCc2cccc(C(F)(F)F)c2)N[C@H]1c1cccc(F)c1 — 1.5-fold lower, 35.3 µM
- O=C(N/N=C/c1cc([N+](=O)[O-])ccc1O)c1cccc2cc[nH]c12 — 2.9-fold lower, 18.5 µM
- CN1/C(=C\C=C\C2=[N+](C)c3ccc4ccccc4c3C2(C)C)C(C)(C)c2ccccc21 — 6.1-fold lower, 8.85 µM
- O=S(=O)(Nc1c(S(=O)(=O)c2ccccc2)c2nc3ccccc3nc2n1C1CCCCC1)c1ccccc1 — 9.5-fold lower, 5.67 µM
- Oc1cc(Cl)ccc1Oc1ccc(Cl)cc1Cl — lower, < 0.55 µM
- Cc1cc(=O)[nH]c(-n2nc(C)cc2C)n1 — within 1.5-fold, 68.8 µM
- O=C(N/N=C\C=C\c1ccc([N+](=O)[O-])o1)c1cccs1 — 4.9-fold lower, 11 µM
- CC(=O)NC(c1ccc2ccccc2c1)c1ccc2cccnc2c1O (centres undefined) — within 1.5-fold, 66.7 µM
- CCn1cc(C(=O)NCCO)c(=O)c2cc(F)c(N3CCN(C)CC3)cc21 — 1.9-fold lower, 27.7 µM
- CN(O)/C=c1/ccc2c(n1)C(=O)C=CC=2 — 2.8-fold lower, 19.5 µM
- OC(CNCCc1ccccc1)COc1ccc(OCC(O)CNCCc2ccccc2)cc1 (centres undefined) — 2.5-fold lower, 21.3 µM
- CC(NCc1ccc(Cl)cc1)C(O)c1ccccc1 (centres undefined) — within 1.5-fold, 42.8 µM
- O=C(Nc1nnc(-c2cccs2)o1)c1cccc(Oc2ccccc2)c1 — within 1.5-fold, 59.6 µM
- CCN1CCN(Cc2ccc(NC(=O)c3ccc(C)c(NC(=O)C(=O)c4c[nH]c5ccccc45)c3)cc2C(F)(F)F)CC1 — within 1.5-fold, 59.3 µM
